{
  "source": "patent US10849867B2",
  "about": "“Methods and compositions for treating conditions associated with an abnormal inflammatory response” (First Wave Bio, Inc., priority 2015, dated 2020)",
  "key": {"[1]": {"system": "lamina propria T cell (CD3+)", "test": "Cell death in lamina propria T cell from active IBD, 7-AAD staining (FIG. 1)", "type": "cell-based, human", "conditions": "10 μM for 16 hours, LPMC from IBD subjects, versus DMSO", "experimental": "Cell death in lamina propria T cell (CD3+) was determined by measuring 7-AAD staining by flow cytometry. FIG. 1. […] Cell death in lamina propria T cell (CD3+) was determined by measuring 7-AAD staining by flow cytometry."}, "[2]": {"system": "human LPMCs T cells", "test": "ΔΨm in human LPMC CD45+CD3+ T cells, JC-1 flow cytometry (Example 12)", "type": "cell-based", "conditions": "5 μM, 60 min, JC-1, relative to negative control", "description": "The Model-Lamina propria mononuclear cells (LPMC) in the human intestine are comprised in part by T cells which mediate physiological and pathological processes including inflammatory bowel disease. LPMCs can be isolated from human tissue biopsies. After isolation […] cells remain viable ex vivo under appropriate culture conditions for periods of time that allow ex vivo experiments. These cells can be used to investigate mechanisms that regulate their mitochondrial function and survival They contain respiring mitochondria and as such their response to test agents may be assessed. Uncoupling is identified and quantified by a detecting a drop in the electrochemical gradient across the mitochondrial inner membrane (ΔΨm). […] The isolated cells were counted and checked for viability using 0.1% trypan blue (viability ranged from 86% to 94%). […] A flow cytometer FACSVerse flow cytometer and FACSSuite software [BD Biosciences] was used for quantification of JC-1 fluorescence in CD45+CD3+ cells. […] Consequently, mitochondrial depolarization is indicated by a decrease in the red/green fluorescence intensity ratio. […] LPMC CD45+CD3+ T cells were first defined by their fluorescence emission from labeling with eFluor® 450-anti-CD3 antibody and PerCP-Cyanine5.5-[…] antibody. The fluorescence intensity of JC-1 detected at 525 nm and 590 nm in the CD45+CD3+ T cell population was then measured. […]"}, "[3]": {"system": "TNBS model of ulcerative colitis", "test": "Murine TNBS model of ulcerative colitis, rectal versus intraperitoneal (FIG. 2)", "type": "in vivo"}},
  "data": [
    {"smiles": "O=C(Nc1ccc([N+](=O)[O-])cc1Cl)c1cc(Cl)ccc1O", "note": "[Niclosamide, 5-chloro-N-(2-chloro-4-nitrophenyl)-2-hydroxybenzamide]", "values": [
      {"measurement": "cell death in lamina propria T cell (CD3+)", "setting": "[1]", "result": "induces cell death"},
      {"measurement": "change in ΔΨm in human LPMCs T cells", "setting": "[2]", "result": "decrease"},
      {"measurement": "efficacy in murine TNBS model of ulcerative colitis", "setting": "[3]; administered rectally (locally)", "result": "robust efficacy"},
      {"measurement": "efficacy in murine TNBS model of ulcerative colitis", "setting": "[3]; intraperitoneal injection (systemically)", "result": "not by intraperitoneal injection"}
    ]}
  ]
}
